Values after ≈ are worked out from the molar mass of the structure shown. Where a name gives a salt, the structure may show the parent alone.
Assays:
[1] = Brine shrimp lethality assay (BSA); details: Artemia salina (brine shrimp) nauplii, in vivo, probit analysis, read-out: LC50 against Artemia salina larvae
Experimental: Gohari et al. reported the method which was adopted to study the cytotoxic activity of the compounds [11]. Water life brand brine shrimp (Artemia salina) eggs were purchased from the Shalat Center (Tehran). The eggs were hatched in a flask containing 300 mL artificial seawater made […]. The flask was well aerated with the aid of an air pump and kept in a water bath at 29-30°C. A bright light was left on. The nauplii hatched within 48 h. The extracts and pure compounds were dissolved in normal saline. Different concentrations were obtained by serial dilution. Solution of each concentration (500 μL) was transferred into clean 24-well plates via a pipette, and aerated seawater having 10–20 nauplii (500 μL) was added. A check count was performed and the number alive noted after 24 h. The mortality end point of the bioassay was determined as the absence of controlled forward motion during 30 seconds of observation. […] Lethality percentage was determined and LC50 calculated based on probit analysis with 95% of confidence interval [11].

[2] = system: T47D (human, breast, ductal carcinoma); assay: MTT cytotoxicity assay, T47D; type: cell-based; details: 48 hours
Experimental: (§1) Four cancerous cell lines HT29/219 (human, colon, epithelial-like, carcinoma), Caco2 (human, colon, adenocarcinoma), NIH-3T3 (Swiss NIH mouse, embryo fibroblast), and T47D (human, breast, ductal carcinoma) were purchased from the Pasteur Institute, Tehran, Iran. The cells were maintained in RPMI 1640, supplemented with 10% fetal bovine serum, 0.28 units/mL insulin, 100 μg/mL streptomycin, 100 units/mL penicillin, and 0.3 mg/mL glutamine. The cells were grown at 37°C in a humidified atmosphere of 5% CO2, in air.
(§2) The cytotoxicity of the compounds isolated from S. spicigera was assayed using the MTT cytotoxicity assay. The cells (3 × 10^ 4) were plated in 500 μL of medium/well in 48-well plates (NUNC Cell Culture Flasks, Denmark). After an overnight incubation at 37°C, in 5% CO2, and a humidified atmosphere, the samples were added to the cells to a final concentration of 500 μg/mL. “Methotrexate” (positive control) and pure compounds were examined at concentrations ranging from 5, 10, 20, 40, 80, and 100 μg/mL. The plates were incubated at 37°C, in 5% CO2, humidified atmosphere, for 48 hours. After 48 hours, 50 μL of 5 mg/mL MTT (dissolved in PBS) was added per well. After three hours of incubation, the MTT solution was removed and the cells were washed with 100 μL of PBS, twice. One hundred and fifty microlitres of DMSO was added per well, to solubilize the formazan crystals. The optical densities of the wells were then measured at 570 nm (690 nm reference wavelength). By referring to the control (medium with DMSO), the cell survival was assessed.

[3] = system: Caco-2 (colon adenocarcinoma); assay: MTT cytotoxicity assay, Caco-2; type: cell-based; details: Homo sapiens, 48 hours
Experimental: as §1, §2

[4] = system: HT-29 (colon adenocarcinoma); assay: MTT cytotoxicity assay, HT-29; type: cell-based; details: Homo sapiens, 48 hours
Experimental: as §1, §2

[5] = system: NIH 3T3 (Swiss embryo fibroblast); assay: MTT cytotoxicity assay, NIH 3T3; type: cell-based; details: Mus musculus, NIH3T3, 48 hours
Experimental: as §1, §2

[6] = system: HT29/219, Caco2, NIH-3T3, and T47D; assay: MTT cytotoxicity assay, all four cell lines (statement in words); type: cell-based; details: 48 hours
Experimental: as §1
The cytotoxicity of the compounds isolated from S. spicigera was assayed using the MTT cytotoxicity assay. The cells (3 × 10^ 4) were plated in 500 μL of medium/well in 48-well plates (NUNC Cell Culture Flasks, Denmark). After an overnight incubation at 37°C, in 5% CO2, and a humidified atmosphere, the samples were added to the cells to a final concentration of 500 μg/mL. “Methotrexate” (positive control) and pure compounds were examined at concentrations ranging from 5, 10, 20, 40, 80, and 100 μg/mL. The plates were incubated at 37°C, in 5% CO2, humidified atmosphere, for 48 hours. After 48 hours, 50 μL of 5 mg/mL MTT (dissolved in PBS) was added per well. […] The optical densities of the wells were then measured at 570 nm (690 nm reference wavelength). By referring to the control (medium with DMSO), the cell survival was assessed.

melting point	SMILES	LC50 at 24 h [1]	IC50 [2]	IC50 [3]	IC50 [4]	IC50 [5]	inhibition of the cell growth or proliferation (in words) [6]
	COc1ccc2cc3[n+](cc2c1OC)CCc1cc2c(cc1-3)OCO2 [berberine hydrochloride, reference compound]	26 µg/mL					
	O=C(c1c(O)cc(O)cc1O)C(O)Cc1ccc(O)cc1 (stereo not shown) [compound 7, nubigenol]		132 µg/mL (≈ 455 µM)	143 µg/mL (≈ 493 µM)	> 150 µg/mL	112 µg/mL (≈ 386 µM)	
	O=C1CC(c2cc(O)cc(O)c2)Oc2cc(O)cc(O)c21 (stereo not shown) [compound 8, 5,7,3′,5′-Tetrahydroxy Flavanone]	2 µg/mL (≈ 6.94 µM)	> 150 µg/mL	> 150 µg/mL	> 150 µg/mL	101 µg/mL (≈ 349 µM)	did not show significant inhibition
256 °C	COc1cc(C2CC(=O)c3c(O)cc(OC4OC(COC5OC(C)C(O)C(O)C5O)C(O)C(O)C4O)cc3O2)ccc1O [compound 9, 5,4′-Dihydroxy-3′-methoxyflavanone-7-(6′′-O-α-L-rhamnopyranosyl)-β-D-glucopyranoside]		98.7 µg/mL (≈ 162 µM)	> 150 µg/mL	> 150 µg/mL	140 µg/mL (≈ 230 µM)	

— article PMC3349126, “Evaluation of the Cytotoxicity of Satureja spicigera and Its Main Compounds” (The Scientific World Journal, 2012)
